Consider 16 compounds from patent publication US20110021565A1, “PIPERIDINE DERIVATIVES AS NK3 ANTAGONISTS” (priority 2007, published 2011).

Structures are written as SMILES.

The target in the first experiment is T1, recombinant human NK3 receptor (Homo sapiens, UniProt P29371).
T1 construct: expressed in transfected cells; host or cells: HEK293 cells, transient expression; membrane preparation
T1 sequence (P29371 1-465): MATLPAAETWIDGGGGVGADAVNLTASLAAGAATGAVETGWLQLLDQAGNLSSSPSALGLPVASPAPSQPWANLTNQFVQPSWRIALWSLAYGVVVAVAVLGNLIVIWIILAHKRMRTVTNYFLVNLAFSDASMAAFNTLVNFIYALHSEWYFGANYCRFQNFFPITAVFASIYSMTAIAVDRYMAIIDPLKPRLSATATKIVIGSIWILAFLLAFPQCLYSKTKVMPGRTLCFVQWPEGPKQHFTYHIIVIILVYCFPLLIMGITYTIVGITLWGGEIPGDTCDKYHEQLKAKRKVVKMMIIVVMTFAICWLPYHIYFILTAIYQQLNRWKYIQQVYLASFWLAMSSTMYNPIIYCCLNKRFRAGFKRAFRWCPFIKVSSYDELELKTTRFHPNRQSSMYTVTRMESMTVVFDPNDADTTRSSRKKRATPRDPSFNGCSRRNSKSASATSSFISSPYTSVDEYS
The experiment can be described thus: [3H]SR142801 competition binding assay. The following applies: [3H]SR142801, membranes of HEK293 cells transiently expressing recombinant human NK3 receptor; read-out: hNK3 Ki. The procedure:
[^3H]SR142801 Competition Binding Assay
hNK3 receptor binding experiment were performed using [^3H]SR142801 (Catalog No. TRK1035, specific activity: 74.0 Ci/mmol, Amersham, GE Healthcare UK limited, Buckinghamshire, UK) and membrane isolated from HEK293 cells transiently expressing recombinant human NK3 receptor. After thawing, the membrane homogenates were centrifuged at 48,000×g for 10 min at 4° C., the pellets were resuspended in the 50 mM Tris-HCl, 4 mM MnCl2, 1 μM phosphoramidon, 0.1% BSA binding buffer at pH 7.4 to a final assay concentration of 5 μg protein/well. For inhibition experiments, membranes were incubated with [^3H]SR142801 at a concentration equal to KD value of radioligand and 10 concentrations of the inhibitory compound (0.0003-10 μM) (in a total reaction volume of 500 μl) for 75 min at room temperature (RT). At the end of the incubation, membranes were filtered onto unitfilter (96-well white microplate with bonded GF/C filter preincubated 1 h in 0.3% PEI+0.3% BSA, Packard BioScience, Meriden, Conn.) with a Filtermate 196 harvester (Packard BioScience) and washed 4 times with ice-cold 50 mM Tris-HCl, pH 7.4 buffer. Nonspecific binding was measured in the presence of 10 μM SB222200 for both radioligands. The radioactivity on the filter was counted (5 min) on a Packard Top-count microplate scintillation counter with quenching correction after addition of 45 μl of microscint 40 (Canberra Packard S. A., Zurich, Switzerland) and shaking for 1 h. Inhibition curves were fitted according to the Hill equation: y=100/(1+(x/IC50)^nH), where nH=slope factor using Excel-fit 4 software ([…]). IC50 values were derived from the inhibition curve and the affinity constant (IQ values were calculated using the Cheng-Prussoff equation Ki=IC50/(1+[L]/KD) where [L] is the concentration of radioligand and KD is its dissociation constant at the receptor, derived from the saturation isotherm. All experiments were performed in duplicate and the mean±standard error (SEM) of the individual Ki values was calculated.
One may read the Ki as a measure of affinity in units of concentration, obtained from inhibition or displacement. `CC(=O)N(C1CC1)C1CCN(CCC(C)(C(=O)N[C@@H](CO)c2ccc(Cl)cc2)c2ccc(Cl)c(Cl)c2)CC1` (single isomer, unassigned; diastereoisomer 1) [Example 142, 4-[4-(Acetyl-cyclopropyl-amino)-piperidin-1-yl]-N-[1-(4-chloro-phenyl)-2-hydroxy-ethyl]-2-(3,4-dichloro-phenyl)-2-methyl-butyramide (diastereoisomer 1)]: the Ki turned out to be 0.0109 µM.

As for `CC(=O)N(C1CC1)C1CCN(CCC(C)(C(=O)N[C@@H](CO)c2ccc(Cl)c(Cl)c2)c2ccc(Cl)c(Cl)c2)CC1` (single isomer, unassigned; diastereoisomer 1) [Example 144, 4-[4-(Acetyl-cyclopropyl-amino)-piperidin-1-yl]-2-(3,4-dichloro-phenyl)-N-[1-(3,4-dichloro-phenyl)-2-hydroxy-ethyl]-2-methyl-butyramide (diastereoisomer 1)], the inhibition constant Ki was determined as 0.0101 µM.

For `COCCN(C(C)=O)C1CCN(CCC(C)(C(=O)N[C@@H](CO)c2ccc(F)cc2)c2ccc(Cl)c(Cl)c2)CC1` (single isomer, unassigned; diastereoisomer 1) [Example 146, 4-{4-[Acetyl-(2-methoxy-ethyl)-amino]-piperidin-1-yl}-2-(3,4-dichloro-phenyl)-N-[1-(4-fluoro-phenyl)-2-hydroxy-ethyl]-2-methyl-butyramide (diastereoisomer 1)], the inhibition constant Ki worked out at 0.0007 µM.

Take `CC(=O)NC1CCN(CCC(C)(C(=O)N[C@@H](CO)c2ccc(F)cc2)c2ccc(Cl)c(Cl)c2)CC1` (single isomer, unassigned; diastereoisomer 1) [Example 154, 4-(4-Acetylamino-piperidin-1-yl)-2-(3,4-dichloro-phenyl)-N-[1-(4-fluoro-phenyl)-2-hydroxy-ethyl]-2-methyl-butyramide (diastereoisomer 1)]: the Ki was determined as 0.17 µM.

For the compound `CC(=O)NC1CCN(CCC(C)(C(=O)N[C@@H](CO)c2ccc(Cl)cc2)c2ccc(Cl)c(Cl)c2)CC1` (single isomer, unassigned; diastereoisomer 1) [Example 156, 4-(4-Acetylamino-piperidin-1-yl)-N-[1-(4-chloro-phenyl)-2-hydroxy-ethyl]-2-(3,4-dichloro-phenyl)-2-methyl-butyramide (diastereoisomer 1)], the inhibitory constant (Ki) worked out at 0.0505 µM.

Regarding `CC(=O)NC1CCN(CCC(C)(C(=O)N[C@@H](CO)c2ccc(Cl)c(Cl)c2)c2ccc(Cl)c(Cl)c2)CC1` (single isomer, unassigned; diastereoisomer 1) [Example 158], the Ki is 0.0346 µM.

As to `CN(C1CCN(CCC(C)(C(=O)N[C@H](CO)c2ccc(Cl)c(Cl)c2)c2ccc(Cl)c(Cl)c2)CC1)S(C)(=O)=O` (single isomer, unassigned; diastereoisomer 2) [Example 50, 2-(3,4-Dichloro-phenyl)-N-[1-(3,4-dichloro-phenyl)-2-hydroxy-ethyl]-4-[4-(methanesulfonyl-methyl-amino)-piperidin-1-yl]-2-methyl-butyramide; diastereoisomer 2], the Ki was found to be 0.0521 µM.

With `CCN(C1CCN(CCC(C)(C(=O)N[C@H](CO)c2ccc(Cl)c(Cl)c2)c2ccc(Cl)c(Cl)c2)CC1)S(C)(=O)=O` (single isomer, unassigned; diastereoisomer 2) [Example 80, 2-(3,4-Dichloro-phenyl)-N-[1-(3,4-dichloro-phenyl)-2-hydroxy-ethyl]-4-[4-(ethyl-methanesulfonyl-amino)-piperidin-1-yl]-2-methyl-butyramide; diastereoisomer 2], the Ki was 0.0133 µM.

With `CC(CCN1CCC(N2CCCC2=O)CC1)(C(=O)N[C@H](CO)c1ccc(Cl)c(Cl)c1)c1ccc(Cl)c(Cl)c1` (single isomer, unassigned; diastereoisomer 2) [Example 98, 2-(3,4-Dichloro-phenyl)-N-[1-(3,4-dichloro-phenyl)-2-hydroxy-ethyl]-2-methyl-4-[4-(2-oxo-pyrrolidin-1-yl)-piperidin-1-yl]-butyramide; diastereoisomer 2], the Ki stood at 0.0499 µM.

On to `CC(=O)N(C)C1CCN(CCC(C)(C(=O)N[C@H](CO)c2ccc(Cl)c(Cl)c2)c2ccc(Cl)c(Cl)c2)CC1` (single isomer, unassigned; diastereoisomer 2) [Example 110, 4-[4-(Acetyl-methyl-amino)-piperidin-1-yl]-2-(3,4-dichloro-phenyl)-N-[1-(3,4-dichloro-phenyl)-2-hydroxy-ethyl]-2-methyl-butyramide; diastereoisomer 2], for which the inhibition constant (Ki) was found to be 0.11 µM.

As to `CC(=O)N(C)C1CCN(CCC(C)(C(=O)N[C@H](CO)c2ccc(F)cc2)c2ccc(Cl)c(Cl)c2)CC1` (single isomer, unassigned; diastereoisomer 2) [Example 139, 4-[4-(Acetyl-methyl-amino)-piperidin-1-yl]-2-(3,4-dichloro-phenyl)-N-[1-(4-fluoro-phenyl)-2-hydroxy-ethyl]-2-methyl-butyramide (diastereoisomer 2)], the Ki amounted to 0.141 µM.

`CC(=O)N(C1CC1)C1CCN(CCC(C)(C(=O)N[C@H](CO)c2ccc(F)cc2)c2ccc(Cl)c(Cl)c2)CC1` (single isomer, unassigned; diastereoisomer 2) [Example 141, 4-[4-(Acetyl-cyclopropyl-amino)-piperidin-1-yl]-2-(3,4-dichloro-phenyl)-N-[1-(4-fluoro-phenyl)-2-hydroxy-ethyl]-2-methyl-butyramide (diastereoisomer 2)]: the Ki was 0.165 µM.

Consider `CC(=O)N(C1CC1)C1CCN(CCC(C)(C(=O)N[C@@H](CO)c2ccc(Cl)cc2)c2ccc(Cl)c(Cl)c2)CC1` (single isomer, unassigned; diastereoisomer 2) [Example 143, 4-[4-(Acetyl-cyclopropyl-amino)-piperidin-1-yl]-N-[1-(4-chloro-phenyl)-2-hydroxy-ethyl]-2-(3,4-dichloro-phenyl)-2-methyl-butyramide (diastereoisomer 2)], for which the Ki came to 0.0877 µM.

In the case of `CC(=O)N(C1CC1)C1CCN(CCC(C)(C(=O)N[C@H](CO)c2ccc(Cl)c(Cl)c2)c2ccc(Cl)c(Cl)c2)CC1` (single isomer, unassigned; diastereoisomer 2) [Example 145, 4-[4-(Acetyl-cyclopropyl-amino)-piperidin-1-yl]-2-(3,4-dichloro-phenyl)-N-[1-(3,4-dichloro-phenyl)-2-hydroxy-ethyl]-2-methyl-butyramide (diastereoisomer 2)], the Ki was found to be 0.0502 µM.

In the case of `CC(=O)NC1CCN(CCC(C)(C(=O)N[C@H](CO)c2ccc(F)cc2)c2ccc(Cl)c(Cl)c2)CC1` (single isomer, unassigned; diastereoisomer 2) [Example 155, 4-(4-Acetylamino-piperidin-1-yl)-2-(3,4-dichloro-phenyl)-N-[1-(4-fluoro-phenyl)-2-hydroxy-ethyl]-2-methyl-butyramide (diastereoisomer 2)], the Ki came to 0.0138 µM.

As for `CC(=O)NC1CCN(CCC(C)(C(=O)N[C@@H](CO)c2ccc(Cl)cc2)c2ccc(Cl)c(Cl)c2)CC1` (single isomer, unassigned; diastereoisomer 2) [Example 157, 4-(4-Acetylamino-piperidin-1-yl)-N-[1-(4-chloro-phenyl)-2-hydroxy-ethyl]-2-(3,4-dichloro-phenyl)-2-methyl-butyramide (diastereoisomer 2)], the inhibitory constant (Ki) is 0.773 µM.

The experiment is the same for the next values; noted with them: representative compounds; [3H]SR142801, HEK293 membranes, human NK3 receptor; read-out: Ki NK3 h.
`COCCN(C(C)=O)C1CCN(CCC(C)(C(=O)N[C@@H](CO)c2ccc(F)cc2)c2ccc(Cl)c(Cl)c2)CC1` (single isomer, unassigned; diastereoisomer 1) [Example 146, 4-{4-[Acetyl-(2-methoxy-ethyl)-amino]-piperidin-1-yl}-2-(3,4-dichloro-phenyl)-N-[1-(4-fluoro-phenyl)-2-hydroxy-ethyl]-2-methyl-butyramide (diastereoisomer 1)]: the inhibition constant (Ki) amounted to 0.0007 µM.
